Consider 19 compounds from ChEMBL document CHEMBL1201862, “PubChem BioAssay data set” (2004).

Activity calls are given as the source filed them.

Chain of Cytochrome P450 2D6 (P10635 whole entry): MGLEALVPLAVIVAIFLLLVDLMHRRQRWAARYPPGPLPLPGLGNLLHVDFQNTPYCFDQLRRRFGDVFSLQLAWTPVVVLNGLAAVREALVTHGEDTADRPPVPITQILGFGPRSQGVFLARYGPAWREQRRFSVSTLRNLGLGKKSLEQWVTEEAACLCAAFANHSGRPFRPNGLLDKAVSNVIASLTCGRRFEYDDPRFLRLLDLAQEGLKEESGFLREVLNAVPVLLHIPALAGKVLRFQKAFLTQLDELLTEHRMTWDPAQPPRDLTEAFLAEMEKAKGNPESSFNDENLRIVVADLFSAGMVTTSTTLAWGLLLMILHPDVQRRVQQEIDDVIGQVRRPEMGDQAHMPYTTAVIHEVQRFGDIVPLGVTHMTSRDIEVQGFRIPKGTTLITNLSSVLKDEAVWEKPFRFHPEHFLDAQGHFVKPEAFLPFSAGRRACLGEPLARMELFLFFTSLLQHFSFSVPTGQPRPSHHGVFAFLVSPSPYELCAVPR
Chain of Cytochrome P450 2C9 (P11712 whole entry): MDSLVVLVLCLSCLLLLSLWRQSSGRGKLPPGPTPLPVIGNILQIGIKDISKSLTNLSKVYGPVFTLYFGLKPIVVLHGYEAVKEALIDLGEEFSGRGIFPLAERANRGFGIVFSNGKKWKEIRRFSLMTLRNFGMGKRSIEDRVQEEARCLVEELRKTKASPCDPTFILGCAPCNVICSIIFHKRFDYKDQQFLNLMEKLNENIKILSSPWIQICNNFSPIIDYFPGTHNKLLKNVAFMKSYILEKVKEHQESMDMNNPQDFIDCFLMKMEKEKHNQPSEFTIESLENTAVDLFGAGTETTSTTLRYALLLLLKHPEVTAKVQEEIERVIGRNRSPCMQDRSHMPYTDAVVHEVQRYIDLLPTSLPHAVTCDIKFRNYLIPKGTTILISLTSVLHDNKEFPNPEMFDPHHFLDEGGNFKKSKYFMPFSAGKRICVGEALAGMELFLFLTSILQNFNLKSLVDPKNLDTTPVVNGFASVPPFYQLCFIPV

One assay relates to Streptococcus sp. 'group A'. Briefly: growth inhibition of control SK(-) GAS strain, dose response, counter-screen for streptokinase expression inhibitor project, luminescence, kanamycin, BacTiterGlo, confirmation (AID 1900). The format is functional, organism-based.
Settings: not given
`CCOc1cc(N2CCOCC2)c(OCC)cc1NC(=O)C1=NN(c2cccc(C)c2)C(=O)CC1`: the EC50 is 13.8 µM (active).

With `CC(C)(C)c1cc(NCc2ccccn2)n2ncc(-c3ccc(Cl)cc3)c2n1`, the EC50 was 2.44 µM (active).

As for `CCC1(C)Cc2c(sc3nc(SC)nc(S)c23)CO1` (stereo not given), the EC50 is 1.84 µM (active).

In the case of `CCOc1ccc(C(=O)NC(=S)Nc2ccc(NC(=O)CC)cc2)cc1[N+](=O)[O-]`, the EC50 is 4.28 µM (active).

Take `Cc1ccc2c(Cl)cc(Cl)c(OCC(=O)NC(C)(C)C)c2n1`: the EC50 is 12.7 µM (active).

Consider `CC(Oc1ccc(Cl)cc1Cl)C(=O)NC1=NN(c2ccccc2)C(=O)C1` (stereo not given), for which the EC50 was 3.04 µM (active).

The next assay concerns the target T1, Heat shock factor protein 1 (Mus musculus, UniProt P38532).
T1 sequence (P38532 whole entry): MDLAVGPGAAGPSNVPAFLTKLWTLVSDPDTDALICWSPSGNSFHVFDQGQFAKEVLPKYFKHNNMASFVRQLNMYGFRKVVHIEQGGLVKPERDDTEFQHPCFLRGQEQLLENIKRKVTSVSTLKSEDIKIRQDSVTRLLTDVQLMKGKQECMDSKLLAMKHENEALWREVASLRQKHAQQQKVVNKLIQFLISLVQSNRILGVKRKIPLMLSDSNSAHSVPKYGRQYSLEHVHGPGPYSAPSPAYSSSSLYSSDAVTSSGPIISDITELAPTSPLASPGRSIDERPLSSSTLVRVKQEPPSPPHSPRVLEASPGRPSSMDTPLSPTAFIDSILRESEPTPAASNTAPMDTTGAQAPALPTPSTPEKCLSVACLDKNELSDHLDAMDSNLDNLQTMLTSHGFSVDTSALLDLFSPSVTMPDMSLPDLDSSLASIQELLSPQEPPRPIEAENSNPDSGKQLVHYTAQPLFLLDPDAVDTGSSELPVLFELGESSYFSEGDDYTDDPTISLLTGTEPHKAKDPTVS
Nature of the assay: inhibition of MG132-induced HSE-luciferase signal, confirmation, cell-based, NIH3T3, luminescence, dose retest (AID 2382).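 Also: NIH3T3 fibroblasts with HSF1-driven luciferase reporter stressed by proteasome inhibitor MG132; luminescence from HSF1-driven luciferase expression after 8 hours of MG132 stress.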 The format is functional.
Settings: not given
For the compound `Cc1ccc(N2CC(C(=O)Nc3nc4ccc(S(C)(=O)=O)cc4s3)CC2=O)cc1` (stereo not given), the EC50 was > 195 µM (not active).

For `Cc1cccc(C)c1OCC(=O)NCc1ccccc1`, the EC50 is > 195 µM (not active).

Consider `N#C/C(=C\Nc1ccc2c[nH]nc2c1)c1nc(-c2ccccc2)cs1`, for which the EC50 is > 195 µM (not active).

For the compound `COc1ccc(CCNC(=O)CN(c2ccc(OC)c(OC)c2)S(C)(=O)=O)cc1OC`, the EC50 is listed as > 195 µM (not active).

As for `COc1ccccc1-c1nnc(SC2CCc3ccccc3NC2=O)s1` (stereo not given), the EC50 was > 195 µM (not active).

Turning to `CC(=O)Nc1ccc(S(=O)(=O)NCc2csc(C)n2)cc1`, the EC50 is on record as > 195 µM (not active).

Another assay deals with T2, Streptokinase A (Streptococcus pyogenes serotype M1, UniProt P10520).
T2 sequence (P10520 whole entry): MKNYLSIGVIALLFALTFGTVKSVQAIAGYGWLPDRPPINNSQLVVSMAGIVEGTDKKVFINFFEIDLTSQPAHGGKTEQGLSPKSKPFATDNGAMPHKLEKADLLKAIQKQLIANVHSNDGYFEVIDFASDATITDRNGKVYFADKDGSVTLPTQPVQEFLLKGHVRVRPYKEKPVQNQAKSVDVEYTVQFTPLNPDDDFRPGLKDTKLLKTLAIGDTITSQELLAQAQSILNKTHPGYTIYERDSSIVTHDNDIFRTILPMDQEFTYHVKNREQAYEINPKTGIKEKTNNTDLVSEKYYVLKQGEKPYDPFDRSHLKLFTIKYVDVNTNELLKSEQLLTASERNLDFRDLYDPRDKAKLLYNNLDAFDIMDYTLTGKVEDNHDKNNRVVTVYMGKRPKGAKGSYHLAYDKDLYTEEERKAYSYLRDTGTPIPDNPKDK
Nature of the assay: S. pyogenes streptokinase expression inhibitors, potency, dose response, plasminogen activation absorbance, OD405 (AID 1914).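 Also: secreted streptokinase activity via plasminogen activation per viability signal from cell pellet.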 The format is functional, Streptococcus pyogenes M1 GAS.
Settings: not given
In the case of `CCOc1cc(N2CCOCC2)c(OCC)cc1NC(=O)C1=NN(c2cccc(C)c2)C(=O)CC1`, the EC50 was > 150 µM (not active).

With `CC(C)(C)c1cc(NCc2ccccn2)n2ncc(-c3ccc(Cl)cc3)c2n1`, the EC50 is reported as > 150 µM (not active).

In the case of `CCC1(C)Cc2c(sc3nc(SC)nc(S)c23)CO1` (stereo not given), the EC50 is listed as > 150 µM (not active).

On to `CCOc1ccc(C(=O)NC(=S)Nc2ccc(NC(=O)CC)cc2)cc1[N+](=O)[O-]`, for which the EC50 was > 150 µM (not active).

Regarding `Cc1ccc2c(Cl)cc(Cl)c(OCC(=O)NC(C)(C)C)c2n1`, the EC50 was > 150 µM (not active).

With `CC(Oc1ccc(Cl)cc1Cl)C(=O)NC1=NN(c2ccccc2)C(=O)C1` (stereo not given), the EC50 is 123 µM (inconclusive).

Another assay relates to Streptococcus. Nature of the assay: Group A Streptococcus viability loss, dose response, counter-screen for streptokinase expression inhibitor project, luminescence, BacTiterGlo (AID 1915).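 Also: potency for reduction of bacterial viability or growth.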
Settings: not given
The format is functional, organism-based. A general note: The purpose of a counterscreen is to sort out artefacts and off-target activity.
With `CCOc1cc(N2CCOCC2)c(OCC)cc1NC(=O)C1=NN(c2cccc(C)c2)C(=O)CC1`, the EC50 was 123 µM (active).

Turning to `CC(C)(C)c1cc(NCc2ccccn2)n2ncc(-c3ccc(Cl)cc3)c2n1`, the EC50 is 3.1 µM (active).

Regarding `CCC1(C)Cc2c(sc3nc(SC)nc(S)c23)CO1` (stereo not given), the EC50 is listed as > 150 µM (not active).

Take `CCOc1ccc(C(=O)NC(=S)Nc2ccc(NC(=O)CC)cc2)cc1[N+](=O)[O-]`: the EC50 was 64.4 µM (active).

`Cc1ccc2c(Cl)cc(Cl)c(OCC(=O)NC(C)(C)C)c2n1`: the EC50 is reported as > 150 µM (not active).

Regarding `CC(Oc1ccc(Cl)cc1Cl)C(=O)NC1=NN(c2ccccc2)C(=O)C1` (stereo not given), the EC50 was 6.39 µM (active).

Another assay deals with Cytochrome P450 2C19 (Homo sapiens, UniProt P33261). Briefly: Cytochrome panel assay with activity outcomes. Panel member name: p450-cyp2c19 Compounds with AC50 equal or less than 10 uM are considered active. The format is functional. The following applies: read-out: AC50.
Chain of Cytochrome P450 2C19 (P33261 whole entry): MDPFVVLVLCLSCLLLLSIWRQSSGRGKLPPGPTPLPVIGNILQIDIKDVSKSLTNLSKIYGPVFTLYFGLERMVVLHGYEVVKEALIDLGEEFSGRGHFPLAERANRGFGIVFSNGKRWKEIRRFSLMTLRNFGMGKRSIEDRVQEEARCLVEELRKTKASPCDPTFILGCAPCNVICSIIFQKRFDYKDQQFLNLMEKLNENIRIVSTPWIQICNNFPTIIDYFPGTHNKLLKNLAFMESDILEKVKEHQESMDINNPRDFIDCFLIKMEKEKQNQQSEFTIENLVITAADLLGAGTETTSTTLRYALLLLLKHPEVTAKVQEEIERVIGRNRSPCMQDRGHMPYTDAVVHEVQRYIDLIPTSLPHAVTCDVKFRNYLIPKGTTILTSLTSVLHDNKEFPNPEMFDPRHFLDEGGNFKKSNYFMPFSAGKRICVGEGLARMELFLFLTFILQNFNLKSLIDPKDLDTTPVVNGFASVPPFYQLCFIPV
Take `CCCC(c1cc(C(C)(C)C)c(O)cc1C)c1cc(C(C)(C)C)c(O)cc1C`: the half-maximal activity concentration (AC50) (usually the concentration giving half of the maximal activity seen) was 6.31 µM (inconclusive).

Take `Cc1ccc(C(=O)Nc2nc3ccccc3n3nnnc23)cc1`: the AC50 is 14.1 µM (inconclusive).

As for `CC1CN(C2CCN(C(=O)c3cccc(Cl)c3)CC2)CC(C)O1` (stereo not given), the AC50 was 5.62 µM (inconclusive).

For the next assay, the target named is T3, Corticotropin-releasing factor receptor 2/Corticotropin-releasing factor-binding protein (Homo sapiens, UniProt P24387+Q13324).
T3 sequence (Q13324 whole entry): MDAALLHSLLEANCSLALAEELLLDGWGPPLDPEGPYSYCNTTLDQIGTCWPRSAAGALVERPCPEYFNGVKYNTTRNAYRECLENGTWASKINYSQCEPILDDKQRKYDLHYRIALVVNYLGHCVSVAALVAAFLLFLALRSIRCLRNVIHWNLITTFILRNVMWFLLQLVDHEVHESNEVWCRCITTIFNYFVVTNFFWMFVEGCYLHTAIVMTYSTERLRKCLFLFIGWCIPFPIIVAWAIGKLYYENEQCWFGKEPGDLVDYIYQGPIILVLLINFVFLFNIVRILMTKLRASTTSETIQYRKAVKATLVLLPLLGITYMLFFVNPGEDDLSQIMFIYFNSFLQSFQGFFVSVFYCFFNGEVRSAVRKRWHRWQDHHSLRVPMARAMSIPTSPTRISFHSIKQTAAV
T3 sequence (P24387 whole entry): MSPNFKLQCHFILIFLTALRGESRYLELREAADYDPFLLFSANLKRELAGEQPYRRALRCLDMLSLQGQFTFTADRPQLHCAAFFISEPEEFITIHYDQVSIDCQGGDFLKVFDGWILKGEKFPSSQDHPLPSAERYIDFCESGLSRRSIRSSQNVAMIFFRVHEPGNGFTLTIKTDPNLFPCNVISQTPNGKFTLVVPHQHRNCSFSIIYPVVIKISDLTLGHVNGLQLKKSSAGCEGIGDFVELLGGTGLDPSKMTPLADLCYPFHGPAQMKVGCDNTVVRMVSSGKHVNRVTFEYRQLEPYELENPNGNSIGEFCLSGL
Briefly: Dose Response confirmation of uHTS hits for small molecule antagonists of the CRF-binding protein and CRF-R2 receptor complex. The format is functional. The following applies: read-out: IC50_Mean.
On to `Cc1ccc(C(=O)OCn2nnc3ccccc3c2=O)cc1[N+](=O)[O-]`, for which the IC50 is > 47.1 µM (inactive).

As for `CC(=O)Nc1ccc(NC(=O)COc2ccc([N+](=O)[O-])cc2)cc1`, the IC50 was > 47.1 µM (inactive).

Regarding `CC(NC(=O)COC(=O)c1ccc2c(=O)n3c(nc2c1)CCCCC3)c1ccccc1` (stereo not given), the IC50 is > 47.1 µM (inactive).

In the case of `COc1ccc(S(=O)(=O)N(C)CC(=O)NC2CCCCC2)cc1OC`, the IC50 is > 47.1 µM (inactive).

The target of the next assay is T3, Corticotropin-releasing factor receptor 2/Corticotropin-releasing factor-binding protein. Briefly: activators of CRF receptor 2 with binding protein – uHTS hits, confirmation (AID 602473). The format is functional. The following applies: read-out: EC50_Mean.
Turning to `Cc1ccc(C(=O)OCn2nnc3ccccc3c2=O)cc1[N+](=O)[O-]`, the EC50 is > 53 µM (inactive).

`CC(=O)Nc1ccc(NC(=O)COc2ccc([N+](=O)[O-])cc2)cc1`: the EC50 is > 53 µM (inactive).

`CC(NC(=O)COC(=O)c1ccc2c(=O)n3c(nc2c1)CCCCC3)c1ccccc1` (stereo not given): the EC50 was > 53 µM (inactive).

Consider `COc1ccc(S(=O)(=O)N(C)CC(=O)NC2CCCCC2)cc1OC`, for which the EC50 is > 53 µM (inactive).

The next assay concerns the target Cytochrome P450 2D6 (Homo sapiens, UniProt P10635).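 Also: CYP2D6 member of a cytochrome P450 panel assay.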
Settings: not given
For `CCCC(c1cc(C(C)(C)C)c(O)cc1C)c1cc(C(C)(C)C)c(O)cc1C`, the AC50 is 3.98 µM (inconclusive).

`Cc1ccc(C(=O)Nc2nc3ccccc3n3nnnc23)cc1`: the AC50 was 12.6 µM (inconclusive).

As to `CC1CN(C2CCN(C(=O)c3cccc(Cl)c3)CC2)CC(C)O1` (stereo not given), the AC50 is 0.891 µM (inconclusive).

The target in another assay is Cytochrome P450 3A4 (Homo sapiens, UniProt P08684).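 Also: CYP3A4 tested as one member of a cytochrome P450 panel screen.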
Chain of Cytochrome P450 3A4 (P08684 whole entry): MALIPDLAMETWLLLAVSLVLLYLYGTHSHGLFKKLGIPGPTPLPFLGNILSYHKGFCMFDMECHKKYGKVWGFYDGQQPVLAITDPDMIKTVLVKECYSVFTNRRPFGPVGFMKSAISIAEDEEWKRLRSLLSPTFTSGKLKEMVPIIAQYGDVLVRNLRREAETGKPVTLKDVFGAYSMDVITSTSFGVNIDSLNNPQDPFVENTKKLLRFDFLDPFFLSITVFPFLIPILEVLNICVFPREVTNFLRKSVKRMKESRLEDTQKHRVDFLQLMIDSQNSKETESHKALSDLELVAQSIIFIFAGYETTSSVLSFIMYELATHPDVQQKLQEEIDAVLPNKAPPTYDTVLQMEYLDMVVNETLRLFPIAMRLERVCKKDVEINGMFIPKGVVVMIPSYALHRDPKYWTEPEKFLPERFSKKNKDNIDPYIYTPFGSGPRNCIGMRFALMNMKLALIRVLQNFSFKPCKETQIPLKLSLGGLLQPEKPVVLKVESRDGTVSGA
Settings: not given
As to `Cc1ccc(C(=O)Nc2nc3ccccc3n3nnnc23)cc1`, the AC50 was 10 µM (inconclusive).

Another assay addresses Cytochrome P450 2C9 (Homo sapiens, UniProt P11712).
Settings: not given
With `CCCC(c1cc(C(C)(C)C)c(O)cc1C)c1cc(C(C)(C)C)c(O)cc1C`, the AC50 was 3.16 µM (inconclusive).
